# Test system: Carrageenin induced hyperalgesia in the rat
# Test: Carrageenin induced hyperalgesia, rat paw pressure test
# Assay type: in vivo
# Conditions: po, 30 mg/kg p.o., 1 h post dose, MPE = maximum possible effect, baseline value prior to carrageenin
# Experimental: (§1) In another test, compounds were evaluated for their ability to reduce the hyperalgesia effects of carrageenin in the following assay: nociceptive pressure thresholds were measured in the rat paw pressure test using an analgesimeter (Randall L. O. and Selitto J. J., A method for measurement of analgesic activity on inflamed tissue. Arch. Int. Pharmacodyn 4: 409-419, 1957). Male Sprague-Dawley rats (70-90 g) were trained on this apparatus before the test day. Pressure was gradually applied to the hind paw of each rat Nociceptive thresholds were determined as the pressure (g) required to elicit paw withdrawal. A cutoff point of 250 g was used to prevent any tissue damage to the paw. On the test day, 2 to 3 baseline measurements were taken before animals were administered 100 μl of 2% aqueous carrageenin by intraplantar injection into the right hind paw. […]
row,SMILES,inhibition in vivo at 30 mg/kg [%]
1,"CCC(=O)N(CCN(CC)CC)c1ccc(Cl)c2ccccc12 [Example 1, N-Propionyl, N-(2-Diethylaminoethyl)-1-amino-4-chloronaphthalene]",51.5
2,"CCC(=O)N(CCN(CC)CC)c1cccc2c1-c1ccccc1C2=O [Example 2, N-Propionyl, N-(2-Diethylaminoethyl)-4-amino-9-fluorenone]",1.1
3,"CCC(=O)N(CCN(CC)CC)c1ccc(Br)c2ccccc12 [Example 3, N-Propionyl, N-(2-Diethylaminoethyl)-1-amino-4-bromonaphthalene]",-2.6
4,CCC(=O)N(CCN1CCOCC1)c1ccc(Cl)c2ccccc12 [Example 4],44.8
5,"CCC(=O)N(c1ccc(Cl)c2ccccc12)C(C)CN(CC)CC (centres unmarked) [Example 5, N-Propionyl, N-(2-(3-diethylamino-propyl))-1-amino-4-chloronaphthalene]",23.3
6,"CCC(=O)N(CCNCc1ccccc1)c1cccc2ccccc12 [Example 12, N-Propionyl, N-(2-(N-benzyl)-aminoethyl)-1-aminonaphthalene]",29.7
7,"C=CC(=O)N(CCN(CC)CC)c1ccc(Cl)c2ccccc12 [Example 14, N-Acryloyl, N-(2-Diethylaminoethyl)-1-amino-4-chloronaphthalene]",15.1

# Test system: Carrageenin induced thermal hyperalgesia in the rat
# Test: as above
# Assay type: in vivo
# Conditions: po, 30 mg/kg p.o., 2 h post dose, MPE = maximum possible effect, baseline value prior to carrageenin
# Experimental: as §1
row,SMILES,inhibition in vivo at 30 mg/kg [%]
1,"CCC(=O)N(CCN(CC)CC)c1ccc(Cl)c2ccccc12 [Example 1, N-Propionyl, N-(2-Diethylaminoethyl)-1-amino-4-chloronaphthalene]",22.2
2,"CCC(=O)N(CCN(CC)CC)c1cccc2c1-c1ccccc1C2=O [Example 2, N-Propionyl, N-(2-Diethylaminoethyl)-4-amino-9-fluorenone]",6.4
3,"CCC(=O)N(CCN(CC)CC)c1ccc(Br)c2ccccc12 [Example 3, N-Propionyl, N-(2-Diethylaminoethyl)-1-amino-4-bromonaphthalene]",7.7
4,CCC(=O)N(CCN1CCOCC1)c1ccc(Cl)c2ccccc12 [Example 4],30.7
5,"CCC(=O)N(c1ccc(Cl)c2ccccc12)C(C)CN(CC)CC (centres unmarked) [Example 5, N-Propionyl, N-(2-(3-diethylamino-propyl))-1-amino-4-chloronaphthalene]",27.5
6,"CCC(=O)N(CCNCc1ccccc1)c1cccc2ccccc12 [Example 12, N-Propionyl, N-(2-(N-benzyl)-aminoethyl)-1-aminonaphthalene]",3.13
7,"C=CC(=O)N(CCN(CC)CC)c1ccc(Cl)c2ccccc12 [Example 14, N-Acryloyl, N-(2-Diethylaminoethyl)-1-amino-4-chloronaphthalene]",0.9
